Patent US7037645B2, “Methods for identification of CDS8+ suppressor molecules” (priority 2000, dated 2006)
Like-named read-outs stand apart in the source and are kept apart here.

System: CXCR4 dependent pseudotyped virus (NL4-3)
Assay: Single cycle HIV infection assay, pseudotyped luciferase reporter virus, time of addition
Settings: for activity at 0.2 µM: read-out: viral infection level, % of control levels; for inhibition of pseudotyped virus expression: all time points of addition, 0.2 μM

Structure (SMILES)	activity at 0.2 µM (Human immunodeficiency virus 1, NL43, 10 h) [%]	activity at 0.2 µM (Human immunodeficiency virus 1, NL43, 14 h) [%]	time post virus exposure within which addition suppresses pseudotyped virus replication (time of addition, DP178 20 μg/ml, mAb#19 20 μg/ml, nevirapine 0.2 μM, Tat inhibitor 50 μM)	inhibition of pseudotyped virus expression	inhibition of pseudotyped virus expression (listed as protease inhibitor)
Cc1ccnc2c1NC(=O)c1cccnc1N2C1CC1 [nevirapine]	67	85	approximately 10 hours	–	–
Cc1c(O)cccc1C(=O)N[C@@H](CSc1ccccc1)[C@H](O)CN1C[C@H]2CCCC[C@H]2C[C@H]1C(=O)NC(C)(C)C [nelfinavir]	–	–	–	ineffectual	does not, therefore, inhibit
